Columns and labels:
MDA-MB-231 [1] = assay: drug sensitivity score (DSS); higher = more sensitive; extreme values may be limits of the assay; conditions: incubation time: 72 h
Summary of the method: (§1)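 MDA-MB-231 cells transfected a day earlier with siRNA against BRCA1 or non-targeting control siRNA were added at 4000 cells per well to 384-well plates holding compounds at 5 concentrations. After 72 h at 37 °C and 5% CO2, viability was read by CellTiter-Blue fluorescence. IC50 and drug sensitivity score came from logistic dose–response fits in Dotmatics Studies. The score is curve area relative to the area between 10% threshold and 100% inhibition, normalised by log of top response.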

MDA-MB-231 [2] = conditions: incubation time: 72 h
Summary of the method: as §1

[3] = siRNA: siControl (non-targeting)

Row | SMILES | drug sensitivity score (MDA-MB-231 [1]; siRNA: siBRCA1) | drug sensitivity score (MDA-MB-231 [1]; [3]) | IC50 of cell viability (MDA-MB-231 [2]; siRNA: siBRCA1) | IC50 of cell viability (MDA-MB-231 [2]; [3])
1 | CN1CCN(c2nc(C3=C(c4c[nH]c5ccccc45)C(=O)NC3=O)c3ccccc3n2)CC1 [Sotrastaurin] | 0 | 0 | > 4.17 µM | > 4.17 µM
2 | Nc1nc(Cl)nc2c1ncn2[C@@H]1O[C@H](CO)[C@@H](O)[C@@H]1F [Clofarabine] | 8.22 | 12.5 | 0.0821 µM | 0.0281 µM
3 | CN(C)c1nc(N(C)C)nc(N(C)C)n1 [Altretamine] | 0 | 0 | > 4.17 µM | > 4.17 µM
4 | Cc1c2oc3c(C)ccc(C(=O)N[C@@H]4C(=O)N[C@H](C(C)C)C(=O)N5CCC[C@H]5C(=O)N(C)CC(=O)N(C)[C@@H](C(C)C)C(=O)O[C@@H]4C)c3nc-2c(C(=O)N[C@@H]2C(=O)N[C@H](C(C)C)C(=O)N3CCC[C@H]3C(=O)N(C)CC(=O)N(C)[C@@H](C(C)C)C(=O)O[C@@H]2C)c(N)c1=O [Dactinomycin] | 36.8 | 38.3 | 0.00419 µM | 0.00218 µM
5 | COc1cc(Nc2ncc3c(n2)-c2ccc(Cl)cc2C(c2c(F)cccc2OC)=NC3)ccc1C(=O)O [MLN8237 (Alisertib)] | 4.61 | 8.75 | 0.917 µM | 0.358 µM
6 | N[C@@H](Cc1ccc(N(CCCl)CCCl)cc1)C(=O)O [Melphalan] | 0 | 0 | > 4.17 µM | > 4.17 µM
7 | O=P1(N(CCCl)CCCl)NCCCO1 (centres undefined) [Cyclophosphamide] | 0.0343 | 0 | > 4.17 µM | > 4.17 µM
8 | NC(=O)c1ccc(I)c([N+](=O)[O-])c1 [Iniparib] | 0 | 0 | > 4.17 µM | > 4.17 µM
9 | Nc1ncn([C@H]2C[C@H](O)[C@@H](CO)O2)c(=O)n1 [Decitabine] |  | 0 | > 4.17 µM | > 4.17 µM
10 | Cn1nnc2c(C(N)=O)ncn2c1=O [Temozolomide] | 0 | 0 | > 4.17 µM | > 4.17 µM
11 | Oc1ncc(N(CCCl)CCCl)c(O)n1 [Uracil mustard] | 0 | 0 | > 4.17 µM | > 4.17 µM
12 | CNC(=O)c1ccccc1Sc1ccc2c(/C=C/c3ccccn3)n[nH]c2c1 [Axitinib] | 0 | 0 | > 4.17 µM | > 4.17 µM
13 | CCC1(c2ccc(N)cc2)CCC(=O)NC1=O (centres undefined) [Aminoglutethimide] | 0 | 0 | > 4.17 µM | > 4.17 µM
14 | Cc1ccc(NC(=O)c2ccc(CN3CCN(C)CC3)cc2)cc1Nc1nc(-c2cccnc2)cs1 [Masitinib] | 0.717 | 4.31 | > 4.17 µM | 1.41 µM
15 | S=P(N1CC1)(N1CC1)N1CC1 [Thiotepa] | 0 | 0 | > 4.17 µM | > 4.17 µM
16 | CN[C@@H]1C[C@H]2O[C@@](C)([C@@H]1OC)n1c3ccccc3c3c4c(c5c6ccccc6n2c5c31)C(=O)N[C@H]4O [UCN-01] | 23.4 | 27.8 | 0.0668 µM | 0.0289 µM
17 | Oc1ncnc2[nH]ncc12 [Allopurinol] | 0 | 0 | > 4.17 µM | > 4.17 µM
18 | Cn1cnc2c(F)c(Nc3ccc(Br)cc3Cl)c(C(=O)NOCCO)cc21 [Selumetinib] | 10.3 | 10.7 | 0.61 µM | 0.297 µM
19 | CN(C)CCN1C(=O)c2cccc3cc(N)cc(c23)C1=O [Amonafide] | 8.98 | 6.72 | 1.79 µM | 2.16 µM
20 | CC[C@H](Nc1ncnc2[nH]cnc12)c1nc2cccc(F)c2c(=O)n1-c1ccccc1 [CAL-101] | 0 | 2.02 | > 4.17 µM | 1.09 µM

Row | SMILES | drug sensitivity score (MDA-MB-231 [1]; siRNA: siBRCA1) | drug sensitivity score (MDA-MB-231 [1]; [3]) | IC50 of cell viability (MDA-MB-231 [2]; siRNA: siBRCA1) | IC50 of cell viability (MDA-MB-231 [2]; [3])
21 | CC[C@@H]1C(=O)N(C)c2cnc(Nc3ccc(C(=O)NC4CCN(C)CC4)cc3OC)nc2N1C1CCCC1 [BI 2536] | 23.3 | 24.9 | 0.00567 µM | 0.00308 µM
22 | CCCCCCCCc1ccc(CCC(N)(CO)CO)cc1 [Fingolimod] | 5.09 | 7.79 | 3 µM | 1.71 µM
23 | O=S(=O)(c1cccc2cnccc12)N1CCCNCC1 [Fasudil] | 0 | 0 | > 4.17 µM | > 4.17 µM
24 | CC[C@@]1(O)C(=O)OCc2c1cc1n(c2=O)Cc2cc3ccccc3nc2-1 [Camptothecin] | 16.9 | 10.9 | 0.0456 µM | 0.328 µM
25 | CO[C@H](C(=O)[C@@H](O)[C@@H](C)O)[C@@H]1Cc2cc3cc(O[C@H]4C[C@@H](O[C@@H]5C[C@@H](O)[C@H](O)[C@@H](C)O5)[C@H](O)[C@@H](C)O4)c(C)c(O)c3c(O)c2C(=O)[C@H]1O[C@H]1C[C@@H](O[C@@H]2C[C@@H](O)[C@@H](O[C@@H]3C[C@](C)(O)[C@H](O)[C@@H](C)O3)[C@@H](C)O2)[C@H](O)[C@@H](C)O1 [Plicamycin] | 23.4 | 24.2 | 0.0679 µM | 0.056 µM
26 | Cc1[nH]c2ccccc2c1CCNCc1ccc(/C=C/C(=O)NO)cc1 [Panobinostat] | 28.7 | 29.6 | 0.0317 µM | 0.0275 µM
27 | COc1cc([C@@H]2c3cc4c(cc3[C@@H](O[C@@H]3O[C@@H]5CO[C@@H](c6cccs6)O[C@H]5[C@H](O)[C@H]3O)[C@H]3COC(=O)[C@H]23)OCO4)cc(OC)c1O [Teniposide] | 5.24 | 7.09 | 2.84 µM | 1.98 µM
28 | COc1cc2c(Oc3ccc(NC(=O)C4(C(=O)Nc5ccc(F)cc5)CC4)cc3F)ccnc2cc1OCCCN1CCOCC1 [Foretinib] | 13.6 | 12.8 | 0.503 µM | 0.585 µM
29 | O=c1[nH]c(=O)n([C@H]2C[C@H](O)[C@@H](CO)O2)cc1F [Floxuridine] | 8.85 | 11.5 | 0.748 µM | 0.291 µM
30 | C=C(c1ccc(C(=O)O)cc1)c1cc2c(cc1C)C(C)(C)CCC2(C)C [Bexarotene] | 0 | 0 | > 4.17 µM | > 4.17 µM
31 | Cc1ccc(NC(=O)c2ccc(CN3CCN(C)CC3)cc2)cc1Nc1nccc(-c2cccnc2)n1 [Imatinib] | 0 | 0 | > 4.17 µM | > 4.17 µM
32 | CN(C)C/C=C/C(=O)Nc1cc2c(Nc3ccc(F)c(Cl)c3)ncnc2cc1O[C@H]1CCOC1 [Afatinib] | 4.43 | 8.65 | 3.35 µM | 1.68 µM
33 | O=NN(CCCl)C(=O)NCCCl [Carmustine] | 0 | 0 | > 4.17 µM | > 4.17 µM
34 | C[C@@H](C(=O)O)c1ccc(-c2ccccc2)c(F)c1 [Tarenflurbil] | 0 | 0 | > 4.17 µM | > 4.17 µM
35 | CCC/C=C/C=C/C(=O)O[C@H]1/C(=C/C(=O)OC)C[C@H]2C[C@H]([C@@H](C)O)OC(=O)C[C@H](O)C[C@@H]3C[C@H](OC(C)=O)C(C)(C)[C@](O)(C[C@@H]4C/C(=C/C(=O)OC)C[C@H](/C=C/C(C)(C)[C@]1(O)O2)O4)O3 [Bryostatin 1] | 0 | 0 | 0.0833 µM | 0.0833 µM
36 | O=C(c1cc(Cc2n[nH]c(=O)c3ccccc23)ccc1F)N1CCN(C(=O)C2CC2)CC1 [Olaparib] | 0 | 0 | > 4.17 µM | > 4.17 µM
37 | CC(C)C[C@H](NC(=O)[C@@H](COC(C)(C)C)NC(=O)[C@H](Cc1ccc(O)cc1)NC(=O)[C@H](CO)NC(=O)[C@H](Cc1c[nH]c2ccccc12)NC(=O)[C@H](Cc1cnc[nH]1)NC(=O)[C@@H]1CCC(=O)N1)C(=O)N[C@@H](CCCNC(=N)N)C(=O)N1CCC[C@H]1C(=O)NNC(N)=O [Goserelin] | 0 | 0 | > 4.17 µM | > 4.17 µM
38 | CC/C(=C(\c1ccccc1)c1ccc(OCCN(C)C)cc1)c1ccccc1 [Tamoxifen] | 0 | 0 | > 4.17 µM | > 4.17 µM
39 | Clc1ccc(C(c2ccccc2Cl)C(Cl)Cl)cc1 (centres undefined) [Mitotane] | 1.03 | 0 | > 4.17 µM | > 4.17 µM
40 | CS(=O)(=O)c1ccc(C(=O)Nc2ccc(Cl)c(-c3ccccn3)c2)c(Cl)c1 [Vismodegib] | 0 | 0 | > 4.17 µM | > 4.17 µM
